This passage reports IC50 results from patent US20110190503A1, “Thiazolopyridin-2-yloxy-phenyl and thiazolopyrazin-2-yloxy-phenyl amines as modulators of leukotriene A4 hydrolase” (Janssen Pharmaceutical NV, priority 2008, published 2011).

pIC50: −log10 of the molar value. Structures can show the parent of a compound that is named as a salt.

The assay has as its target T1, recombinant human LTA4 hydrolase (rhLTA4H) (Homo sapiens, UniProt P09960).
T1 construct: made in house; host or cells: Spodoptera frugiperda (Sf-9) cells, recombinant baculovirus (pFastBac1)
T1 sequence (P09960 1-611): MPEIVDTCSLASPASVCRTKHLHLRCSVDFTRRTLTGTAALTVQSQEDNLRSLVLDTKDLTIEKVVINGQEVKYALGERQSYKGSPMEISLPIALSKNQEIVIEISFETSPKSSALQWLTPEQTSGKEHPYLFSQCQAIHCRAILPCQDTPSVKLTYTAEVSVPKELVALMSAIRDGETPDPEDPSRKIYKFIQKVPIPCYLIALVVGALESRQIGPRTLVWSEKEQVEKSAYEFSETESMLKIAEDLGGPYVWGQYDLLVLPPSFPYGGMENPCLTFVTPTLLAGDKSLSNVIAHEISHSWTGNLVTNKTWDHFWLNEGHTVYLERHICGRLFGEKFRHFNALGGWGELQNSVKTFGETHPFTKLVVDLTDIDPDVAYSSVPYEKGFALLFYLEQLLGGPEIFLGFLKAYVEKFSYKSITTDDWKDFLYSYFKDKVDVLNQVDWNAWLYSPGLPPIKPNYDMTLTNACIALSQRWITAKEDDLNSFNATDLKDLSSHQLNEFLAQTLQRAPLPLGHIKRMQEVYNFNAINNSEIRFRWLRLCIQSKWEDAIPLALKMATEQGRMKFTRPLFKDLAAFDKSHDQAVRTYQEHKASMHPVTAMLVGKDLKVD
Description: Recombinant human LTA4 hydrolase assay for LTA4 hydrolase inhibitor activity. The class given is biochemical. As to conditions: rhLTA4H, LTA4 substrate, LTB4 by immunoassay; single determination or average; read-out: IC50. On the procedure:
Assay 1: Recombinant Human LTA4 Hydrolase Assay for LTA4 Hydrolase Inhibitor Activity
Compounds of the present invention were tested for LTA4 hydrolase inhibitor activity against recombinant human LTA4 hydrolase (rhLTA4H). Vectors were prepared and used to express rhLTA4H essentially as follows: LTA4 hydrolase encoding DNA was amplified by polymerase chain reaction (PCR) using a human placental cDNA library as a template. […] The amplified 1.9 kb DNA fragment encoding LTA4 hydrolase was isolated and cloned into the pFastBac1 vector (Invitrogen). Recombinant baculovirus was generated as described by the manufacturer, and used to infect Spodoptera frugiperda (Sf-9) cells. […] The purified enzyme solution was adjusted to contain 0.29 mg/mL LTA4 hydrolase, 50 mM Tris (pH 8.0), 150 mM NaCl, 5 mM dithiothreitol, 50% glycerol, and EDTA-free Complete protease inhibitor cocktail (Roche).
LTA4 substrate was prepared from the methyl ester of LTA4 (Cayman Chemical) by treatment with 67 equiv of NaOH under nitrogen at rt for 40 min. The LTA4 substrate in its free acid form was kept frozen at −80° C. until needed. Each compound was diluted to different concentrations in assay buffer (from Assay Designs) containing 10% DMSO. A 25-μL aliquot of each compound dilution was incubated for 10 min at rt with an equal volume of assay buffer containing 10 ng of recombinant human LTA4H. The solution was then adjusted to 200 μL with assay buffer. […] Each reaction was carried out at rt for 30 min. The reaction was stopped by diluting 10 μL of the reaction mixture with 200 μL of assay buffer. LTB4 was quantified in the diluted sample by a commercially available enzyme-linked immunoassay (Cayman Chemical Co.), as recommended by the manufacturer. Positive controls, under essentially identical conditions but without addition of an inhibitor compound, and negative controls, containing all assay components except enzyme, were routinely run in each experiment. IC50 values were determined by nonlinear regression of the activity data at different compound concentrations using Graphpad Prism 4.0, one site binding competition.
The values presented here are the result of a single determination or an average of two or more determinations, as indicated in parentheses following each value. For compounds tested three or more times, the average value is followed by the standard deviation
In general, pIC50 refers to the negative decadic logarithm of the IC50, by convention in mol/L. As to `CS(=O)(=O)N1CC2CN(Cc3ccc(Oc4nc5ncc(Cl)cc5s4)cc3)CC2C1` (stereo not drawn) [Example 188, 6-Chloro-2-[(4-{[5-(methylsulfonyl)hexahydropyrrolo[3,4-c]pyrrol-2(1H)-yl]methyl}phenyl)oxy][1,3]thiazolo[4,5-b]pyridine], the pIC50 was 7.30.

Consider `OCCCN(CCOc1ccc(Oc2nc3ccncc3s2)cc1)CC1CC1` [Example 156, 3-[(Cyclopropylmethyl){2-[4-([1,3]thiazolo[5,4-c]pyridin-2-yloxy)phenoxy]ethyl}amino]propan-1-ol], for which the negative logarithm of the IC50 (pIC50) was 6.31. The figure for `Cc1cnc2nc(Oc3ccc(OCCN4CCC(C(=O)N5CCOCC5)CC4)cc3)sc2c1` [Example 145, 6-Methyl-2-(4-{2-[4-(morpholin-4-ylcarbonyl)piperidin-1-yl]ethoxy}phenoxy)[1,3]thiazolo[4,5-b]pyridine] is 6.56; for `NCCCN(Cc1ccc(Oc2nc3ccncc3s2)cc1)CC1CC1` [Example 204, N-(Cyclopropylmethyl)-N-[4-([1,3]thiazolo[5,4-c]pyridin-2-yloxy)benzyl]propane-1,3-diamine hydrochloride] it is 6.24. As for `OCCN(CCOc1ccc(Oc2nc3cccnc3s2)cc1)CC1CC1` [Example 157, 2-[(Cyclopropylmethyl){2-[4-([1,3]thiazolo[5,4-b]pyridin-2-yloxy)phenoxy]ethyl}amino]ethanol], the pIC50 was 6.94. The figure for `CC(=O)N[C@H]1C[C@H]2CC[C@@H](C1)N2Cc1ccc(Oc2nc3ccncc3s2)cc1` [Example 115, meso-N-{(3-endo)-8-[4-([1,3]Thiazolo[5,4-c]pyridin-2-yloxy)benzyl]-8-azabicyclo[3.2.1]oct-3-yl}acetamide] is 6.49; for `c1ccc2c(c1)CCCN2CCOc1ccc(Oc2nc3ncccc3s2)cc1` [Example 7, 1-{2-[4-([1,3]Thiazolo[4,5-b]pyridin-2-yloxy)phenoxy]ethyl}-1,2,3,4-tetrahydroquinoline] it is 6.51. With `CC(=O)N1C[C@@H]2C[C@H]1CN2Cc1ccc(Oc2nc3cc(F)cnc3s2)cc1` [Example 123, 2-(4-{[(1S,4S)-5-Acetyl-2,5-diazabicyclo[2.2.1]hept-2-yl]methyl}phenoxy)-6-fluoro[1,3]thiazolo[5,4-b]pyridine], the pIC50 is 6.74. Regarding `c1cnc2sc(Oc3ccc(CCN4CCCCCC4)cc3)nc2n1` [Example 179, 2-{[4-(2-Azepan-1-ylethyl)phenyl]oxy}[1,3]thiazolo[4,5-b]pyrazine], the pIC50 was 7.42. For the molecule `c1ccc(CC2CCN(CCOc3ccc(Oc4nc5nccnc5s4)cc3)CC2)cc1` [Example 23, 2-{4-[2-(4-Benzylpiperidin-1-yl)ethoxy]phenoxy}[1,3]thiazolo[4,5-b]pyrazine], the pIC50 is 6.80. For the molecule `O=C(O)CCN1CCN(CCc2ccc(Oc3nc4ncccc4s3)cc2)CC1` [Example 225, 3-(4-{2-[4-([1,3]Thiazolo[4,5-b]pyridin-2-yloxy)phenyl]ethyl}piperazin-1-yl)propanoic acid hydrochloride], the pIC50 is 7.68. As to `NC(=O)N1C[C@H]2CC[C@@H](C1)N2CCOc1ccc(Oc2nc3ncccc3s2)cc1` [Example 211, meso-8-{2-[4-([1,3]Thiazolo[4,5-b]pyridin-2-yloxy)phenoxy]ethyl}-3,8-diazabicyclo[3.2.1]octane-3-carboxamide], the pIC50 is 7.62. With `Cc1cnc2nc(Oc3ccc(CN4CCN(C5CCC5)CC4)cc3)sc2c1` [Example 183, 2-({4-[(4-Cyclobutylpiperazin-1-yl)methyl]phenyl}oxy)-6-methyl[1,3]thiazolo[4,5-b]pyridine], the pIC50 is 7.17.

On to `c1cnc(N2CCN(Cc3ccc(Oc4nc5nccnc5s4)cc3)CC2)nc1` [Example 167, 2-({4-[(4-Pyrimidin-2-ylpiperazin-1-yl)methyl]phenyl}oxy)[1,3]thiazolo[4,5-b]pyrazine], for which the pIC50 was 6.36. In the case of `CC(=O)N(C)[C@@H]1C[C@H]2CC[C@@H](C1)N2Cc1ccc(Oc2nc3cccnc3s2)cc1` [Example 228, meso-N-Methyl-N-{(3-exo)-8-[4-([1,3]thiazolo[5,4-b]pyridin-2-yloxy)benzyl]-8-azabicyclo[3.2.1]oct-3-yl}acetamide] it was 6.87; in that of `CCCN(Cc1ccc(Oc2nc3cnccc3s2)cc1)CC1CC1` [Example 186, N-(Cyclopropylmethyl)-N-{[4-([1,3]thiazolo[4,5-c]pyridin-2-yloxy)phenyl]methyl}propan-1-amine], 6.58. `CN(Cc1ccc(Oc2nc3ccncc3s2)cc1)C1CCCCC1` [Example 175, N-Methyl-N-[4-([1,3]thiazolo[5,4-c]pyridin-2-yloxy)benzyl]cyclohexanamine]: the pIC50 is 6.10. Take `c1cncc(OC2CCN(Cc3ccc(Oc4nc5ccncc5s4)cc3)CC2)c1` [Example 248, 2-(4-{[4-(Pyridin-3-yloxy)piperidin-1-yl]methyl}phenoxy)[1,3]thiazolo[5,4-c]pyridine]: the pIC50 is 5.93. In the case of `OCC1CN(Cc2ccc(Oc3nc4ncccc4s3)cc2)CCO1` (stereo not drawn) [Example 82, {4-[4-([1,3]Thiazolo[4,5-b]pyridin-2-yloxy)benzyl]morpholin-2-yl}methanol], the pIC50 was 6.85. Turning to `Cc1cnc2nc(Oc3ccc(OCCN4CCC(NC(=O)C(C)C)CC4)cc3)sc2c1` [Example 140, 2-Methyl-N-[1-(2-{4-[(6-methyl[1,3]thiazolo[4,5-b]pyridin-2-yl)oxy]phenoxy}ethyl)piperidin-4-yl]propanamide], the pIC50 is 6.86. Regarding `CC(=O)N1CC2CN(CCc3ccc(Oc4nc5cccnc5s4)cc3)CC2C1` (stereo not drawn) [Example 69, 2-{4-[2-(5-Acetylhexahydropyrrolo[3,4-c]pyrrol-2(1H)-yl)ethyl]phenoxy}[1,3]thiazolo[5,4-b]pyridine], the pIC50 is 6.92. Consider `CC(=O)N1CCN(CCc2ccc(Oc3nc4ccncc4s3)cc2)CC1` [Example 176, 2-{4-[2-(4-Acetylpiperazin-1-yl)ethyl]phenoxy}[1,3]thiazolo[5,4-c]pyridine], for which the pIC50 is 6.08. For `CN(CCCN1CCCC1=O)CCOc1ccc(Oc2nc3ncc(Cl)cc3s2)cc1` [Example 155, 1-{3-[(2-{4-[(6-Chloro[1,3]thiazolo[4,5-b]pyridin-2-yl)oxy]phenoxy}ethyl)(methyl)amino]propyl}pyrrolidin-2-one], the pIC50 is 6.48. As for `O=C(Cc1cccs1)N1CCN(Cc2ccc(Oc3nc4nccnc4s3)cc2)CC1` [Example 173, 2-[(4-{[4-(2-Thienylacetyl)piperazin-1-yl]methyl}phenyl)oxy][1,3]thiazolo[4,5-b]pyrazine], the pIC50 was 6.41. In the case of `OC1(c2cccc(C(F)(F)F)c2)CCN(CCOc2ccc(Oc3nc4cccnc4s3)cc2)CC1` [Example 37, 1-{2-[4-([1,3]Thiazolo[5,4-b]pyridin-2-yloxy)phenoxy]ethyl}-4-[3-(trifluoromethyl)phenyl]piperidin-4-ol] it was 6.80. As for `O=C1CCCN1C1CCN(CCc2ccc(Oc3nc4cccnc4s3)cc2)CC1` [Example 68, 1-(1-{2-[4-([1,3]Thiazolo[5,4-b]pyridin-2-yloxy)phenyl]ethyl}piperidin-4-yl)pyrrolidin-2-one], the pIC50 was 6.55.

On to `CC(=O)N1[C@@H]2CC[C@H]1C[C@H](NCCOc1ccc(Oc3nc4ncccc4s3)cc1)C2` [Example 215, meso-(3-exo)-8-Acetyl-N-{2-[4-([1,3]thiazolo[4,5-b]pyridin-2-yloxy)phenoxy]ethyl}-8-azabicyclo[3.2.1]octan-3-amine hydrochloride], for which the pIC50 was 7.68.
